Test results taken from the Kinase Knowledgebase extract (Sharma et al. 2016).

Experiments:
PIK3CA (human) = PIK3CA (human) (UniProt P42336); assay: Inhibition of PIK3CA Kinase Activity
[1] = biological target: PIK3CA (human), P42336 [Antiproliferation of PI3K Mutated BT20 Cells]; assay: Cell-Based Assay
PIK3CA (human), P42336 [Antiproliferation of PI3K Mutated BT20 Cells], sequence (P42336 whole entry, looked up, change not shown): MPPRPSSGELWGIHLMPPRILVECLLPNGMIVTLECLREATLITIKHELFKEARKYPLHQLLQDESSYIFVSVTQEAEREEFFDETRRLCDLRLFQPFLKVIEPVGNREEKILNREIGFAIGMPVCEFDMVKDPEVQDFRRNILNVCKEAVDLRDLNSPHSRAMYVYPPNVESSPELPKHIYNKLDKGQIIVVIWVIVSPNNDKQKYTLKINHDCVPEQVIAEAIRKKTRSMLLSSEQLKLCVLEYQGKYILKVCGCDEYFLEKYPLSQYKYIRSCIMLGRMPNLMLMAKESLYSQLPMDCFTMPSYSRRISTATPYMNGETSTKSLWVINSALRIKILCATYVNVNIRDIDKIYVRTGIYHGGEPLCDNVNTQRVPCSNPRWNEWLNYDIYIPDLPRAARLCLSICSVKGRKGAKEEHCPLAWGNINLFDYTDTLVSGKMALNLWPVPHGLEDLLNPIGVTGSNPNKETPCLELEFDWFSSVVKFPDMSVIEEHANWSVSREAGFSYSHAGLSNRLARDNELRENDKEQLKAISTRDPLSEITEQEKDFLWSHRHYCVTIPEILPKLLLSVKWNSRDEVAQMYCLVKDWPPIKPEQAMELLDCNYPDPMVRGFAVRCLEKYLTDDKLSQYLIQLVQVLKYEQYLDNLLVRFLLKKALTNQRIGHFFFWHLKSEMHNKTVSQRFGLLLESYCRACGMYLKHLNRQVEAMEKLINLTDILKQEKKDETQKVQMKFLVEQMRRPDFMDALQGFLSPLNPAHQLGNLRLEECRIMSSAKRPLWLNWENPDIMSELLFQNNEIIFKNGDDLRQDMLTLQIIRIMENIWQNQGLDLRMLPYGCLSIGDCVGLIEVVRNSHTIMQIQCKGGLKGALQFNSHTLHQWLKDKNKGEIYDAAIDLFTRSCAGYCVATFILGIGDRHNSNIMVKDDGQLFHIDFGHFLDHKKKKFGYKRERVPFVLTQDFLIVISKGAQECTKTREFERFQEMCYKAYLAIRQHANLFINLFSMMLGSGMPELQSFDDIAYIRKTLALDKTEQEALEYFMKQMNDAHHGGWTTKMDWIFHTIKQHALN

PIK3CA (human), sequence (P42336 whole entry, looked up): as the sequence (P42336 whole entry, looked up, change not shown) above

| Structure (SMILES) | IC50 (PIK3CA (human)) [nM] | IC50 [1] [nM] |
| --- | --- | --- |
| Cc1nc(N)nc2c1cc(-c1cn[nH]c1)c(=O)n2[C@H]1CC[C@H](O)CC1 | 6.7 | 169 |
| Cc1nc(N)nc2c1cc(-c1cnn(C)c1)c(=O)n2C1CCCC1 | 32 | 623 |
| CNc1nc(C)c2cc(-c3cccnc3OC)c(=O)n(C3CCCC3)c2n1 | 275 | 3530 |
| Cc1nc(N)nc2c1cc(Br)c(=O)n2[C@H]1CC[C@@H](O)CC1 | 130 | 228 |
| Cc1nc(N)nc2c1cc(-c1cncc(N)n1)c(=O)n2C1CCCC1 | 20 | 33.9 |
| Cc1nc(N)nc2c1cc(-c1cn[nH]c1)c(=O)n2C1CCC(C)(O)CC1 (stereo not drawn) | 18 | 15.2 |
| Cc1nc(N)nc2c1cc(-c1cc[nH]n1)c(=O)n2[C@H]1CC[C@H](O)CC1 | 10 | 25.2 |
| CCNc1nc(C)c2cc(CCC(=O)O)c(=O)n(C3CCCC3)c2n1 | 54 | 10000 |
| Cc1nc(N)nc2c1cc(-c1cccc(Cl)n1)c(=O)n2C1CCCC1 | 170 | 3450 |
| CNc1nc(C)c2cc(-c3cccc(OC)c3)c(=O)n(C3CCCC3)c2n1 | 244 | 669 |
| CNc1nc(C)c2cc(-c3ccc(OC)nc3)c(=O)n(CCC3CC3)c2n1 | 8.9 | 41.4 |
| Cc1nc(N)nc2c1cc(-c1cn[nH]c1)c(=O)n2C1CCOC1 (stereo not drawn) | 20 | 25.8 |

Stronger by IC50 (PIK3CA (human)), values ahead:

| IC50 (PIK3CA (human)) [nM] | IC50 [1] [nM] | Structure (SMILES) |
| --- | --- | --- |
| 6.3 | 58.4 | CNc1nc(C)c2cc(-c3ccc(OC)nc3)c(=O)n(C3CCC3)c2n1 |
| 6 | 22.1 | CNc1nc(C)c2cc(-c3cn[nH]c3)c(=O)n(CC3CCOC3)c2n1 (stereo not drawn) |
| 4 | 2750 | CCNc1nc(C)c2cc(CCCO)c(=O)n(C3CCCC3)c2n1 |
| 2 | 11.9 | Cc1nc(N)nc2c1cc(-c1cnc3[nH]ccc3c1)c(=O)n2C1CCC1 |
| 1.57 | 3.82 | CNc1nc(C)c2cc(-c3ccc(O)c(OC)c3)c(=O)n(C3CCCC3)c2n1 |
| 1.01 | 3.05 | CCNc1nc(C)c2cc(-c3cccc(O)c3)c(=O)n(C3CCCC3)c2n1 |
| 0.75 | 3.82 | CNc1nc(C)c2cc(-c3cnc4[nH]ccc4c3)c(=O)n(C3CCCC3)c2n1 |
